Reference: patent US20250186445A1, “TREATMENT OF CANCER WITH MENIN INHIBITORS AND IMMUNO-ONCOLOGY AGENTS” (University Health Network, priority 2022, published 2025)
“Also recorded” adds a separate entry of the source.

Legend:
MC38 cells = experiment: Cytokine gene expression in MC38 cells in 2D culture treated with Compound I; assay type: cell-based; settings: FIG. 5B
CT26 cells = experiment: Cytokine gene expression in CT26 cells in 2D culture treated with Compound I; assay type: cell-based, mouse; settings: FIG. 5A
[1] = test system: CT26 colorectal carcinomas; experiment: CT26 colorectal carcinoma tumor growth in immunocompetent (BALB/c) mice; assay type: in vivo, mouse
Excerpt: Effects of Compound I in combination with PD-L1/PD-1 immune checkpoint blockade on tumor growth were investigated in CT26 tumors.

CNc1nc(NC2CCN(Cc3ccc4c(cc(C#N)n4C[C@H](C)N4CCN(S(C)(=O)=O)CC4)c3C)CC2)c2cc(CC(F)(F)F)sc2n1 [Compound I]
cytokine gene expression (MC38 cells): induces cytokine gene expression | induction of cytokine-related genes (IL33, CXCL10, CXCL9, CD40, CCL4) (CT26 cells): Dose-dependent induction; also recorded: induces cytokine gene expression | tumor growth ([1]; BALB/c mice bearing CT26, 100 mg/kg orally QD, FIG. 6A): reduced tumor growth | CD8+ T-cell infiltration ([1]; CT26 tumors in BALB/c mice, FIGS. 6B-C): increased CD8+ T-cell infiltration | reduction in tumor growth with concomitant anti-CD8 antibody ([1]; CT26 tumors in BALB/c mice, concomitant anti-CD8 antibody, FIG. 6D): could be blocked | CT26 tumor growth, combination of Compound I and anti-PD-1 antibody ([1]; CT26 tumors, combination with anti-PD-1 antibody, FIG. 7): the combination enhanced the activity of anti-PD1 immunotherapy | CT26 tumor growth, single agent ([1]; CT26 tumors, each agent alone, FIG. 7): substantially reduced
